# Data reported in publication PMC3076504 (2011).
# Target: Isocitrate lyase (ICL) (Mycobacterium tuberculosis, UniProt P9WKK7)
# Test: colorimetric glyoxylate-phenylhydrazone assay at […] nm, dose response
# Type: biochemical
# Sequence of Isocitrate lyase (ICL) (P9WKK7 whole entry): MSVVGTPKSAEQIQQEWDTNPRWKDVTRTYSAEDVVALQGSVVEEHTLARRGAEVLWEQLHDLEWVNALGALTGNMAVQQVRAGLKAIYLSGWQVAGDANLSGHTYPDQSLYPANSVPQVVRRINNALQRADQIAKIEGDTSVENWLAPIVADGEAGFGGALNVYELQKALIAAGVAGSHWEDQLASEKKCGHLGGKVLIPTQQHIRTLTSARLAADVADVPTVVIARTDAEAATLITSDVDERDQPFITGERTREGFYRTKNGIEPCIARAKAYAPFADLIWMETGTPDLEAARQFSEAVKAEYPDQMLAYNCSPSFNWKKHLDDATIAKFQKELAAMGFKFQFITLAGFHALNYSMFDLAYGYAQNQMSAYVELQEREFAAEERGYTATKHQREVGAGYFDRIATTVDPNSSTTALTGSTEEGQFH
structure (smiles),measurement,value
O=C(O)C(=O)O [oxalic acid],IC50,13 mM
